In article PMC8838898, “Identification of Novel Cannabinoid CB2 Receptor Agonists from Botanical Compounds and Preliminary Evaluation of Their Anti-Osteoporotic Effects” (Molecules, 2022):
pIC50: −log10 of the molar value. Read-outs that look alike come from different tables or passages of the source.

Experiments:
CB2R [1] = target: T1, CB2R (Homo sapiens, UniProt P34972); assay: double luciferase reporter screening system in HEK293-CB2 cells; type: cell-based
T1 construct: expressed in transfected cells; host or cells: HEK293 cells stably transfected with pIRES2-EGFP-CB2, pGL4.29 [luc2P/CRE/Hygro] and pRL-TK
Protocol: To generate the HEK293-CB2 cells, 5 × 10^5 HEK293 cells were cultured in a 60 mm culture dish for 12 h, washed with PBS, and then transfected with Lipofectamine 3000 reagent containing a test reporter plasmid, control reporter plasmid encoding Renilla luciferase, and effector plasmid. The ratio of the transfection plasmid pIRES2-EGFP-CB2, pGL4.29 [luc2P/CRE/Hygro], and pRL-TK was 2 μg, 10 μg, and 1μg, respectively. After a 24-htransfection, cells were selected and cultured in the medium containing G418 (800 μg·mL^−1) and hygromycin (400 μg·mL^−1) for two weeks. The surviving cells were picked and expanded as HEK293-CB2R cells.
Several aspects of the high-throughput screening system were optimized to ensure efficient and accurate application of the system for high-throughput data collection. To conduct high-throughput assays in 96-well plates, the number of cells seeded per well, incubation time, drug and AM630 concentrations, and the DMSO content were optimized. The dual luciferase assay was performed as described previously. […] Subsequently, the quantitative evaluation indexes of the high-throughput screening system, including the signal-to-background ratio, S/B = Msignal/Mbackground; signal window, SW = Msignal − Mbackground; signal-to-noise ratio, S/N = (Msignal − Mbackground)/SDbackground; signal background coefficient of variation, CV(%) = 100 × SDsignal/Msignal; and Z’ factor were determined to ensure its efficient and accurate application of the system in high-throughput data collection. Here, Z′ = 1 − 3(SDsignal + SDbackground)/|Msignal − Mbackground| [25], where M represents an average of the relative luminescence value and SD is the standard deviation of M.
The HEK293-CB2 cells from 10–40 passages were separately inoculated into 96-well plates at 5 × 10^3 cells per well. […] The results were expressed as relative luminescence values.
The HEK293-CB2 cells were inoculated on a 96-well culture plate with a density of 5 × 10^3 cells per well. […] The relative luminescence value was used to express the expression of CB2R.
Furthermore, the activation of the compounds on CB2R was also verified by using the CB2R inverse agonist AM630. The HEK293-CB2 cells were inoculated on a 6-well culture plate at a density of 5 × 10^4 cells per well. […] The expression of the CB2R gene is expressed by the relative luminescence value.

CB2R [2] = target: T1, CB2R; assay: forskolin-stimulated cAMP accumulation assay in HEK293-CB2 cells; type: cell-based; conditions: forskolin 30 min, then compound 6 h, read-out: IC50 of inhibition of forskolin-stimulated cAMP
Protocol: After treatment, the cell supernatant was diluted with PBS (pH 7.2–7.4). The cells were lysed by repeated freeze–thaw cycles and being centrifuged for 20 min at 2000–3000 r.p.m. The concentration of cAMP in the cell lysate was determined according to the instructions of the cAMP kit.

mBMSCs cells = assay: proliferation of BMSCs (CCK8); type: cell-based, rat; conditions: 1 μM, 48 h
Protocol: (§1) BMSCs were isolated from the femur of 1-day-old Wistar rats and cultured in a dish containing α-MEM supplemented with 10% FBS, 100 U·mL^−1 penicillin, […] streptomycin, and 1% L-Glutaminea in a humidified atmosphere of 5% CO2 for 24 h. The medium was changed every three days. The subculture cells (passage 2–4) were used for subsequent experiments. BMSCs were identified in terms of the morphological character and properties of differentiation into osteoblasts. This experiment was approved by the Bioethics Committee of Zhejiang University of Traditional Chinese Medicine.
(§2) The BMSCs cells were inoculated in a 96-well plate at a density of 1 × 10^4 cells per well and cultured at 37 °C for 24 h. […] The optical density (OD) value was determined at 450 nm. The BMSCs cells were treated as described above and cultured for seven days to measure the ALP activity according to the kit instructions or cultured for five days to stain ALP in the osteoblasts according to the following procedures. Briefly, cells were washed with pre-cooled PBS twice and stained with the alkaline phosphatase staining solution for 30 min at 37 °C. After discarding the dye solution, cells were rinsed with distilled water three times and observed and photographed under a light microscope.

[3] = tested on: osteoblasts derived from mBMSC; assay: ALP activity of osteoblasts derived from BMSCs; type: cell-based, rat; conditions: 1 μM, seven days
Protocol: as §1, §2

[4] = tested on: osteoblasts derived from mBMSC; assay: bone mineralization nodules of osteoblasts (alizarin red staining); type: cell-based, rat; conditions: 1 μM, 14 days
Protocol: as §1
Cells were treated as described above for 14 days to observe the bone mineralized nodule formation using alizarin red staining solution. Briefly, the cells were washed with pre-cooled PBS twice, fixed with 3.7% formaldehyde for 10 min, and stained with ARS dye (pH = 4.2) containing 40 mM alizarin redstain for 10 min. The morphology and number of bone mineralized nodules of osteoblasts were observed under a light microscope.

[5] = tested on: osteoclasts derived from RAW264.7 cells; assay: TRAP activity of osteoclasts derived from RAW264.7 cells induced with RANKL; type: cell-based, murine; conditions: 1 μM, three-day treatment; enzyme activity and cell staining
Protocol: The murine macrophage RAW264.7 cell line, which has the potential to differentiate into osteoclasts under the induction of RANKL, was obtained from the Cell Bank of the Chinese Academy of Sciences (Shanghai, China). The cells were cultured in DMEM containing 10% (v/v), 1% (v/v) penicillin, and streptomycin (Beyotime, Shanghai, China) at 37 °C in humidified air with 5% CO2, and then subcultured every two days. For induction of the osteoclasts, RAW264.7 cells were incubated with 25 ng·mL^−1 RANKL for 72 h. Osteoclasts were identified by TRAP staining.
RAW264.7 cells were inoculated in a 96-well plate at a density of 1 × 10^4 cells per well. After a 24-h culture at 37 °C, cells were treated with the test compounds for 48 h and cell viability was determined with the CCK-8 kit according to the instructions. RAW264.7 cells were inoculated on a 96-well culture plate at a density of 1 × 10^4 cells per well, induced with […] of nuclear factor-κB receptor activator ligand (RANKL) to differentiate into osteoclasts for 72 h. […] Briefly, the cells were washed with sodium thiobarbital twice, lysed with 0.1% Triton X-100 (10 μL per well) for 10 min, and then incubated with 100 μL of TRAP reaction solution (0.02 g disodium nitrophenyl phosphate and 0.1 g potassium sodium tartrate dissolved in 10 mL deionized water with pH adjusted to 3.5 by addition of 1 mol·L^−1 HCl) for 30 min at 37 °C. The reaction was terminated with 1 mol·L^−1 of NaOH solution (100 μL per well) and the absorbance was determined at a wavelength of 405 nm. The TRAP activity was expressed by the amount (mole) of p-nitrophenol produced by 100 osteoclasts. For staining, the osteoclasts were treated as described above, stained according to the instruction of the TRAP staining kit, and observed and photographed under a light microscope.

[6] = HEK293-CB2 cells, pretreated with 1 μM AM630 for 30 min, then 1 μM compound 6 h

T1 sequence (P34972 whole entry): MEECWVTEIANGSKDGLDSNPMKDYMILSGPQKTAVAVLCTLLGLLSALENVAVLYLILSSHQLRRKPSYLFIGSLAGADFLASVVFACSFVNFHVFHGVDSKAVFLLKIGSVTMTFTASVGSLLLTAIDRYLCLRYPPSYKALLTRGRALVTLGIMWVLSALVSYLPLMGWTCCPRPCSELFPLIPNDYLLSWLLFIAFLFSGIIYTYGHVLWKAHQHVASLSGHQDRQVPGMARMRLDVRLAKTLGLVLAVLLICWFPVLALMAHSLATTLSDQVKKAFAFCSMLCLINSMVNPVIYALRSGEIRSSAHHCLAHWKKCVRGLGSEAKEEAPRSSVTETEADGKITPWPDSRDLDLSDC

| SMILES | agonistic effect on CB2R (relative luminescence / fluorescence expression in HEK293-CB2) (CB2R [1]; 1 μM, 6 h, HEK293-CB2 cells) | reversal of the agonistic effect on CB2R by AM630 (CB2R [1]; [6]) | pIC50 (CB2R [2]) | proliferation of mBMSCs cells (mBMSCs cells) | reversal effect on the agonistic effect of HU308 on CB2R (CB2R [1]) | ALP activity of osteoblasts derived from mBMSC [3] | matrix mineralization of osteoblasts derived from mBMSC [4] | TRAP activity of osteoclasts derived from RAW264.7 cells induced with RANKL [5] | agonistic effect on CB2R (relative luminescence / fluorescence expression in HEK293-CB2) (CB2R [1]) | reversal of the agonistic effect on CB2R by AM630 (CB2R [1]) | signal average and standard deviation (positive control group) (CB2R [1]; screening system validation, forskolin 1 μM) [%] |
| --- | --- | --- | --- | --- | --- | --- | --- | --- | --- | --- | --- |
| COc1cc(O)c(C(=O)/C=C/c2ccc(O)cc2)c(OC)c1 [Flavokawain C] | could increase the fluorescence expression | could be abated by AM630 | 5.29 | had no effect on the proliferation |  |  |  |  |  |  |  |
| O=c1cc(-c2ccc(O)c(O)c2)oc2c([C@@H]3O[C@H](CO)[C@@H](O)[C@H](O)[C@H]3O)c(O)cc(O)c12 [Orientin] | could increase the fluorescence expression | could be abated by AM630 | 6.96 | had no effect on the proliferation |  |  |  |  |  |  |  |
| COc1ccc(C(=O)c2c(C)n(CCN3CCOCC3)c3cc(I)ccc23)cc1 [AM630, reference compound] |  |  |  |  | mitigated |  |  |  |  |  |  |
| COC1=CC(=O)O[C@@H](CCc2ccc3c(c2)OCO3)C1 [Dihydromethysticin] | could increase the fluorescence expression | could be abated by AM630 | 7.45 | increased |  | increased | increased |  |  |  |  |
| C[C@H]1[C@H](C)CC[C@]2(C)CC[C@]3(C)C(=CC(=O)[C@@H]4[C@@]5(C)CC[C@@H](O)[C@](C)(C(=O)O)[C@@H]5CC[C@]43C)[C@H]12 [11-Keto-beta-boswellic acid] | could increase the fluorescence expression | could be abated by AM630 | 7.14 | increased |  | increased | increased | inhibited TRAP activity |  |  |  |
| COc1cc(O)ccc1/C=C/C(=O)c1ccc(O)cc1 [Echinatin] | could increase the fluorescence expression | could be abated by AM630 | 7.04 | increased |  | increased | increased | inhibited TRAP activity |  |  |  |
| COc1cc(/C=C/c2ccccc2)oc(=O)c1 [Desmethoxyyangonin] | could increase the fluorescence expression | could be abated by AM630 | 7.52 | increased |  | increased | increased | inhibited TRAP activity |  |  |  |
| O=c1c2cc(O)c(O)cc2oc2cc(O)c([C@@H]3O[C@H](CO)[C@@H](O)[C@H](O)[C@H]3O)c(O)c12 [Mangiferin] |  |  | 5.93 | increased |  | increased | increased | inhibited TRAP activity | could increase the fluorescence expression | could be abated by AM630 |  |
| CC(=O)OCC1=C[C@@H]2OC(=O)C3=CO[C@@H](O[C@@H]4O[C@H](CO)[C@@H](O)[C@H](O)[C@H]4O)[C@H]1[C@@H]32 [Asperuloside] |  |  | 6.55 | had no effect on the proliferation |  |  |  |  | could increase the fluorescence expression | could be abated by AM630 |  |
| COc1ccc(/C=C/C(=O)c2c(O)cc(OC)cc2OC)cc1 [Flavokawain A] | could increase the fluorescence expression | could be abated by AM630 | 6.04 | increased |  | increased | increased | inhibited TRAP activity |  |  |  |
| C=C[C@@]1(C)CC(=O)[C@]2(O)[C@@]3(C)[C@@H](O)CCC(C)(C)[C@@H]3[C@H](O)[C@H](OC(C)=O)[C@@]2(C)O1 [forskolin, reference compound] |  |  |  |  |  |  |  |  |  |  | 63.3 ± 4.4 |
